Among the data in ChEMBL document CHEMBL3886554, “Ring-fused bicyclic pyridyl derivatives as FGFR4 inhibitors” (2016) are IC50 values, retold here.

In this assay the target is Fibroblast growth factor receptor 4 (Homo sapiens, UniProt P22455). Description: Biochemical Kinase Assay: Liquid handling and incubation steps were done on an Innovadyne Nanodrop Express equipped with a robotic arm (Thermo CatX, Caliper Twister II) and an incubator (Liconic STX40, Thermo Cytomat 2C450). The assay plates were prepared by addition of 50 nl per well of compound solution in 90% DMSO. The kinase reactions were started by stepwise addition of 4.5 ul per well of ….
Sequence of Fibroblast growth factor receptor 4 (P22455 whole entry): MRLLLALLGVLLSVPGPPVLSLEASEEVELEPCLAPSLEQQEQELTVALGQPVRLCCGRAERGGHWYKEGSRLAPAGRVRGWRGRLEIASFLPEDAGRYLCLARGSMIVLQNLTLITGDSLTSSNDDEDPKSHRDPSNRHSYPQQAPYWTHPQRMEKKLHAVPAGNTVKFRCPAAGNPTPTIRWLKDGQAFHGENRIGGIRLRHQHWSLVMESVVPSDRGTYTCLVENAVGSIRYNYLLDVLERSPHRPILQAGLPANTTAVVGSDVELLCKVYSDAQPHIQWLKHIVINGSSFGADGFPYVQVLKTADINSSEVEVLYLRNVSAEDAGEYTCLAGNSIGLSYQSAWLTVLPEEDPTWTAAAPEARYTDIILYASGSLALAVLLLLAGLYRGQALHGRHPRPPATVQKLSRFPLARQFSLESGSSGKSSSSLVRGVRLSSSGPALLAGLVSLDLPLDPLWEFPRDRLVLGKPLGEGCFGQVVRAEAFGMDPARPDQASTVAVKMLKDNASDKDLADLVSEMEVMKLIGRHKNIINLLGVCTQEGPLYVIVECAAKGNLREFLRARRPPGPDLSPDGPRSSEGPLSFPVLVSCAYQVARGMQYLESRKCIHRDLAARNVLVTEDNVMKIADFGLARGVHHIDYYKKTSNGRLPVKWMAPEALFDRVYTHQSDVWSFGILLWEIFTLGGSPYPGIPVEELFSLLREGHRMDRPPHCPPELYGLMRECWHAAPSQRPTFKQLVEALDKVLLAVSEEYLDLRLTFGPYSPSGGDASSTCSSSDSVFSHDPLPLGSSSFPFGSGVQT

`CC(C)Oc1cc(NC(=O)N2CCCc3cc(CN(C)C(=O)CO)c(C=O)nc32)ncc1C#N` had an IC50 of 0.3 nM.
